Converted amounts (≈) assume the structure as drawn. Structures can show the parent of a compound that is named as a salt.
Legend:
[1] = Determination of the solubility (suspension shaken 24 h at room temperature, HPLC); type: physicochemical; details: for solubility at 24 h: thermodynamic from solid
Procedure: […] This suspension is shaken at room temperature for 24 h. After ultracentrifugation at 224 000 g for 30 min, the supernatant is diluted with DMSO and analysed by HPLC. A two-point calibration plot of the test compound in DMSO is used for quantification.
Agilent 1100 with DAD (G1315A), quat. pump (G1311A), autosampler CTC HTS PAL, degasser (G1322A) and column thermostat (G1316A); column: Zorbax Extend-C18 3.5μ; temperature: 40° C.; eluent A: water+5 ml of perchloric acid/liter, eluent B: acetonitrile; flow rate: 0.7 ml/min; gradient: 0-0.5 min 98% A, 2% B; ramp 0.5-4.5 min 10% A, 90% B; 4.5-6 min 10% A, 90% B; ramp 6.5-6.7 min 98% A, 2% B; 6.7-7.5 min 98% A, 2% B.

[2] = Stability in buffer at various pH values (HPLC, 37° C., 24 h); type: physicochemical
Procedure: 0.3 mg of the test substance is weighed into a 2 ml HPLC vial and 0.5 ml of acetonitrile is added. The substance is dissolved by putting the sample vessel in an ultrasonic bath for about 10 seconds. Then 0.5 ml of the respective buffer solution is added, and the sample is again treated in the ultrasonic bath.
• pH 4.0:1 liter of Millipore water is adjusted to pH 4.0 with 1 N hydrochloric acid; • pH 7.4: 90 g of sodium chloride, 13.61 g of potassium dihydrogen phosphate and 83.35 g of 1 M sodium hydroxide solution are made up to 1 liter with Millipore water and then diluted 1:10.
5 μl portions of the test solution are analysed by HPLC for their content of unchanged test substance every hour over a period of 24 hours at 37° C. The percentage areas of the appropriate peaks are used for quantification.
Agilent 1100 with DAD (G1314A), binary pump (G1312A), autosampler (G1329A), column oven (G1316A), thermostat (G1330A); column: Kromasil 100 C18, 125 mm×4.6 mm, 5 μm; column temperature: 30° C.; eluent A: water+5 ml of perchloric acid/liter, eluent B: acetonitrile.
The ratios of the peak areas (F) at the respective time points in relation to the peak areas at the starting time are shown in Table 2 for representative exemplary embodiments: […]

[3] = dilute hydrochloric acid (pH 4), pH 4, aqueous buffer, room temperature, 24 h
[4] = buffer pH 4, 37° C., hydrobromide

solubility at 24 h [1, 3] | % test substance after 4 h [F(t = 4 h) × 100/F(t = 0 h)] ([2]; buffer pH 4, 37° C.) | % Test substance after 24 h [F(t = 24 h) × 100/F(t = 0 h)] ([2]; buffer pH 4, 37° C.) | % test substance after 4 h [F(t = 4 h) × 100/F(t = 0 h)] ([2]; buffer pH 7.4, 37° C.) | % Test substance after 24 h [F(t = 24 h) × 100/F(t = 0 h)] ([2]; buffer pH 7.4, 37° C.) | % test substance after 4 h [F(t = 4 h) × 100/F(t = 0 h)] ([2]; buffer pH 7.4, 37° C., hydrobromide) | Solubility ([1]; dilute hydrochloric acid (pH 4), room temperature, 24 h, hydrochloride) | % test substance after 4 h [F(t = 4 h) × 100/F(t = 0 h)] ([2]; buffer pH 7.4, 37° C., hydrochloride) | % test substance after 4 h [F(t = 4 h) × 100/F(t = 0 h)] [2, 4] | % Test substance after 24 h [F(t = 24 h) × 100/F(t = 0 h)] [2, 4] | solubility at 24 h ([1]; 5% dextrose adjusted to pH 4 with hydrochloric acid, pH 4, saline or isotonic) | SMILES
0.32 mg/mL | 100% | 99% | 49% | 3% | – | – | – | – | – | – | NCC(=O)OCC(=O)N(C[C@H]1CN(c2ccc(N3CCOCC3=O)cc2)C(=O)O1)C(=O)c1ccc(Cl)s1 [Example 1, 2-[[(5-Chloro-2-thienyl)carbonyl]({(5S)-2-oxo-3-[4-(3-oxomorpholin-4-yl)phenyl]-1,3-oxazolidin-5-yl}methyl)amino]-2-oxoethyl glycinate hydrochloride]
> 0.5 mg/mL | 100% | 100% | 96% | 80% | – | – | – | – | – | – | CC(C)(N)C(=O)OCC(=O)N(C[C@H]1CN(c2ccc(N3CCOCC3=O)cc2)C(=O)O1)C(=O)c1ccc(Cl)s1 [Example 2, 2-[[(5-Chloro-2-thienyl)carbonyl]({(5S)-2-oxo-3-[4-(3-oxomorpholin-4-yl)phenyl]-1,3-oxazolidin-5-yl}methyl)amino]-2-oxoethyl-2-methylalaninate hydrochloride]
0.34 mg/mL | 100% | 99% | 88% | 48% | – | – | – | – | – | – | CC(C)[C@H](N)C(=O)OCC(=O)N(C[C@H]1CN(c2ccc(N3CCOCC3=O)cc2)C(=O)O1)C(=O)c1ccc(Cl)s1 [Example 3, 2-[[(5-Chloro-2-thienyl)carbonyl]({(5S)-2-oxo-3-[4-(3-oxomorpholin-4-yl)phenyl]-1,3-oxazolidin-5-yl}methyl)amino]-2-oxoethyl L-valinate hydrochloride]
0.48 mg/mL | 100% | 100% | 31% | 0% | – | – | – | – | – | – | O=C(OCC(=O)N(C[C@H]1CN(c2ccc(N3CCOCC3=O)cc2)C(=O)O1)C(=O)c1ccc(Cl)s1)[C@@H]1CCCN1 [Example 4, 2-[[(5-Chloro-2-thienyl)carbonyl] ({(5S)-2-oxo-3-[4-(3-oxomorpholin-4-yl)phenyl]-1,3-oxazolidin-5-yl}methyl)amino]-2-oxoethyl L-prolinate hydrochloride]
0.33 mg/mL | 100% | 94% | 68% | 14% | – | – | – | – | – | – | CNCC(=O)OCC(=O)N(C[C@H]1CN(c2ccc(N3CCOCC3=O)cc2)C(=O)O1)C(=O)c1ccc(Cl)s1 [Example 5, 2-[[(5-Chloro-2-thienyl)carbonyl]({(5S)-2-oxo-3-[4-(3-oxomorpholin-4-yl)phenyl]-1,3-oxazolidin-5-yl}methyl)amino]-2-oxoethyl N-methylglycinate hydrochloride]
0.34 mg/mL | 100% | 99% | 48% | 3% | – | – | – | – | – | – | NCCCC[C@H](N)C(=O)OCC(=O)N(C[C@H]1CN(c2ccc(N3CCOCC3=O)cc2)C(=O)O1)C(=O)c1ccc(Cl)s1 [Example 7, 2-[[(5-Chloro-2-thienyl)carbonyl]({(5S)-2-oxo-3-[4-(3-oxomorpholin-4-yl)phenyl]-1,3-oxazolidin-5-yl}methyl)amino]-2-oxoethyl L-lysinate dihydrochloride]
– | 99% | 81% | 2% | 0% | – | – | – | – | – | – | N[C@@H](Cc1c[nH]cn1)C(=O)OCC(=O)N(C[C@H]1CN(c2ccc(N3CCOCC3=O)cc2)C(=O)O1)C(=O)c1ccc(Cl)s1 [Example 8, 2-[[(5-Chloro-2-thienyl)carbonyl]({(5S)-2-oxo-3-[4-(3-oxomorpholin-4-yl)phenyl]-1,3-oxazolidin-5-yl}methyl)amino]-2-oxoethyl L-histidinate dihydrochloride]
0.68 mg/mL | 100% | 99% | – | 0% | 8% | – | – | – | – | – | CC(C)[C@H](N)C(=O)SCC(=O)N(C[C@H]1CN(c2ccc(N3CCOCC3=O)cc2)C(=O)O1)C(=O)c1ccc(Cl)s1 [Example 10, S-{2-[[(5-Chloro-2-thienyl)carbonyl]({(5S)-2-oxo-3-[4-(3-oxomorpholin-4-yl)phenyl]-1,3-oxazolidin-5-yl}methyl)amino]-2-oxoethyl}(2S)-2-amino-3-methylbutanethioate hydrobromide]
– | – | – | – | – | – | 0.96 mg/mL | 10% | – | – | – | CC(C)[C@H](N)C(=O)SCC(=O)N(C[C@H]1CN(c2ccc(N3CCOCC3=O)cc2)C(=O)O1)C(=O)c1ccc(Cl)s1 [Example 11, S-{2-[[(5-Chloro-2-thienyl)carbonyl]({(5S)-2-oxo-3-[4-(3-oxomorpholin-4-yl)phenyl]-1,3-oxazolidin-5-yl}methyl)amino]-2-oxoethyl}(2S)-2-amino-3-methylbutanethioate hydrochloride]
0.35 mg/mL | – | – | 0% | 0% | – | – | – | 100% | 98% | – | CNCCCC(=O)N(C[C@H]1CN(c2ccc(N3CCOCC3=O)cc2)C(=O)O1)C(=O)c1ccc(Cl)s1 [Example 12, 5-Chloro-N-[4-(methylamino)butanoyl]-N-({(5S)-2-oxo-3-[4-(3-oxomorpholin-4-yl)phenyl]-1,3-oxazolidin-5-yl}methyl)thiophene-2-carboxamide hydrobromide]
– | – | – | 0% | 0% | – | – | – | 57% | 0% | – | CNCCCCC(=O)N(C[C@H]1CN(c2ccc(N3CCOCC3=O)cc2)C(=O)O1)C(=O)c1ccc(Cl)s1 [Example 14, 5-Chloro-N-[5-(methylamino)pentanoyl]-N-({(5S)-2-oxo-3-[4-(3-oxomorpholin-4-yl)phenyl]-1,3-oxazolidin-5-yl}methyl)thiophene-2-carboxamide hydrobromide]
– | 100% | 99% | – | – | – | – | – | – | – | – | CNCCCCCC(=O)N(C[C@H]1CN(c2ccc(N3CCOCC3=O)cc2)C(=O)O1)C(=O)c1ccc(Cl)s1 [Example 18, 5-Chloro-N-[6-(methylamino)hexanoyl]-N-({(5S)-2-oxo-3-[4-(3-oxomorpholin-4-yl)phenyl]-1,3-oxazolidin-5-yl}methyl)thiophene-2-carboxamide hydrochloride]
– | 100% | 97% | 0% | 0% | – | – | – | – | – | – | NCCCC(=O)N(C[C@H]1CN(c2ccc(N3CCOCC3=O)cc2)C(=O)O1)C(=O)c1ccc(Cl)s1 [Example 19, N-(4-Aminobutanoyl)-5-chloro-N-({(5S)-2-oxo-3-[4-(3-oxomorpholin-4-yl)phenyl]-1,3-oxazolidin-5-yl}methyl)thiophene-2-carboxamide hydrochloride]
– | 100% | 100% | 92% | 66% | – | – | – | – | – | > 3 mg/mL | NCCCCCC(=O)N(C[C@H]1CN(c2ccc(N3CCOCC3=O)cc2)C(=O)O1)C(=O)c1ccc(Cl)s1 [Example 21, N-(6-Aminohexanoyl)-5-chloro-N-({(5S)-2-oxo-3-[4-(3-oxomorpholin-4-yl)phenyl]-1,3-oxazolidin-5-yl}methyl)thiophene-2-carboxamide hydrochloride]
0.0081 mg/mL (≈ 18.6 µM) | – | – | – | – | – | – | – | – | – | – | O=C(NC[C@H]1CN(c2ccc(N3CCOCC3=O)cc2)C(=O)O1)c1ccc(Cl)s1 [compound (A), 5-Chloro-N-({(5S)-2-oxo-3-[4-(3-oxomorpholin-4-yl)phenyl]-1,3-oxazolidin-5-yl}methyl)thiophene-2-carboxamide, reference compound]
